Reference: patent US4746349A, “Method and compositions for suppressing the nitrification of ammonium in plant growth medium” (American Cyanamid Company, priority 1986, dated 1988)
Counter-ions that a name gives are not always drawn.

What was measured:
Nitrosomonas spp. = test: Nitrification of ammonium in soil incubated at 25° C. (ammonium recovery, nitrate accumulation); settings: soil 25° C.; for Concentration of nitrate nitrogen / Recovery of Ammonium Nitrogen: 200 ppm N; for Specific inhibition of nitrification through activity against Nitrosomonas spp., in words: 0.1 to 0.5 ppm
Experimental: In these evaluations, one hundred grams (100 g) of oven dry, silt loam field soil with low residual nitrogen is added to a 6×12 cm screw-capped glass jar for each sampling date to provide an optimum environment for nitrification.
Two replicates of each treatment-sampling date are established. The soil is adjusted to 50% water saturation with an aqueous solution of ammonium sulfate at 200 ppm N and the chemical to be tested as a nitrification inhibitor at rates of from 0.10 to 0.50 ppm.
Incubation is at either 25° C. or 38° C. for 0, 1, 2, 4, 7, 9, 12, 16 or 20 weeks. Inorganic N is extracted by adding 2M KCl (10:1 v/w) and shaking for one hour, allowing settling for fifteen minutes. A 10 ml aliquot from the supernatant is assayed for ammonium, nitrite and nitrate by standard steam distillation methods (AOAC, pp. 653-655). Nitrapyrin (0.5 ppm) is used as a nitrification inhibitor for comparison. Benzyl alcohol, acetone, and a non-N amended soil are run as controls and as a check on mineralization.
Nitrification: Ammonium recovery and nitrate accumulation are indicative of nitrification, and data obtained with test compounds are reported in Tables I and II.

Nitrobacter spp. = test: Nitrite nitrogen in ammonium amended soil incubated at 25° C.; settings: soil 25° C., 200 ppm N
Experimental: Determination of nitrite nitrogen and nitrate nitrogen in soil prepared in Example 1 above, which is amended with 200 ppm of nitrogen as aqueous ammonium sulfate, […], is determined using the nitrite and nitrate analysis of the American Organization of Analytical Chemists (AOAC pp. 653-655).

CC[C@@]1([C@@H]2O[C@@H]([C@H]3O[C@@](O)(CO)[C@H](C)C[C@@H]3C)C[C@@H]2C)CC[C@H]([C@]2(C)CC[C@]3(C[C@H](O)[C@@H](C)[C@@H]([C@@H](C)[C@@H](OC)[C@H](C)C(=O)O)O3)O2)O1 [Monensin sodium salt, Monensin]
Concentration of nitrate nitrogen (Nitrosomonas spp.; 0.10 ppm, week 0): 18 PPM
Concentration of nitrate nitrogen (Nitrosomonas spp.; 0.10 ppm, week 1): 17 PPM
Recovery of Ammonium Nitrogen (Nitrosomonas spp.; 0.10 ppm, week 1): 175 PPM
Concentration of nitrate nitrogen (Nitrosomonas spp.; 0.10 ppm, week 2): 17 PPM
Recovery of Ammonium Nitrogen (Nitrosomonas spp.; 0.10 ppm, week 2): 175 PPM
Concentration of nitrate nitrogen (Nitrosomonas spp.; 0.10 ppm, week 4): 45 PPM
Recovery of Ammonium Nitrogen (Nitrosomonas spp.; 0.10 ppm, week 4): 155 PPM
Concentration of nitrate nitrogen (Nitrosomonas spp.; 0.10 ppm, week 7): 199 PPM
Recovery of Ammonium Nitrogen (Nitrosomonas spp.; 0.10 ppm, week 7): 17 PPM
Concentration of nitrate nitrogen (Nitrosomonas spp.; 0.10 ppm, week 9): 220 PPM
Recovery of Ammonium Nitrogen (Nitrosomonas spp.; 0.10 ppm, week 9): 3 PPM
Concentration of nitrate nitrogen (Nitrosomonas spp.; 0.10 ppm, week 12): 206 PPM
Recovery of Ammonium Nitrogen (Nitrosomonas spp.; 0.10 ppm, week 12): 2 PPM
Concentration of nitrate nitrogen (Nitrosomonas spp.; 0.10 ppm, week 16): 213 PPM
Recovery of Ammonium Nitrogen (Nitrosomonas spp.; 0.10 ppm, week 16): 5 PPM
Specific inhibition of nitrification through activity against Nitrosomonas spp., in words (Nitrosomonas spp.): appear to specifically inhibit nitrification through activity against Nitrosomonas spp.
Concentration of nitrate nitrogen (Nitrosomonas spp.; 0.25 ppm, week 0): 19 PPM
Concentration of nitrate nitrogen (Nitrosomonas spp.; 0.25 ppm, week 1): 22 PPM
Recovery of Ammonium Nitrogen (Nitrosomonas spp.; 0.25 ppm, week 1): 179 PPM
Concentration of nitrate nitrogen (Nitrosomonas spp.; 0.25 ppm, week 2): 21 PPM
Concentration of nitrate nitrogen (Nitrosomonas spp.; 0.25 ppm, week 4): 23 PPM
Concentration of nitrate nitrogen (Nitrosomonas spp.; 0.25 ppm, week 7): 28 PPM
Concentration of nitrate nitrogen (Nitrosomonas spp.; 0.25 ppm, week 9): 54 PPM
Recovery of Ammonium Nitrogen (Nitrosomonas spp.; 0.25 ppm, week 9): 157 PPM
Concentration of nitrate nitrogen (Nitrosomonas spp.; 0.25 ppm, week 12): 70 PPM
Recovery of Ammonium Nitrogen (Nitrosomonas spp.; 0.25 ppm, week 12): 124 PPM
Concentration of nitrate nitrogen (Nitrosomonas spp.; 0.25 ppm, week 16): 158 PPM
Recovery of Ammonium Nitrogen (Nitrosomonas spp.; 0.25 ppm, week 16): 74 PPM
Concentration of nitrate nitrogen (Nitrosomonas spp.; 0.25 ppm, week 20): 121 PPM
Recovery of Ammonium Nitrogen (Nitrosomonas spp.; 0.25 ppm, week 20): 21 PPM
Concentration of nitrate nitrogen (Nitrosomonas spp.; 0.50 ppm, week 0): 18 PPM
Concentration of nitrate nitrogen (Nitrosomonas spp.; 0.50 ppm, week 1): 18 PPM
Recovery of Ammonium Nitrogen (Nitrosomonas spp.; 0.50 ppm, week 1): 176 PPM
Concentration of nitrate nitrogen (Nitrosomonas spp.; 0.50 ppm, week 2): 21 PPM
Concentration of nitrate nitrogen (Nitrosomonas spp.; 0.50 ppm, week 4): 22 PPM
Concentration of nitrate nitrogen (Nitrosomonas spp.; 0.50 ppm, week 7): 23 PPM
Concentration of nitrate nitrogen (Nitrosomonas spp.; 0.50 ppm, week 9): 19 PPM
Concentration of nitrate nitrogen (Nitrosomonas spp.; 0.50 ppm, week 12): 22 PPM
Concentration of nitrate nitrogen (Nitrosomonas spp.; 0.50 ppm, week 16): 121 PPM
Recovery of Ammonium Nitrogen (Nitrosomonas spp.; 0.50 ppm, week 16): 110 PPM
Concentration of nitrate nitrogen (Nitrosomonas spp.; 0.50 ppm, week 20): 72 PPM
Recovery of Ammonium Nitrogen (Nitrosomonas spp.; 0.50 ppm, week 20): 143 PPM
Concentration of nitrite nitrogen (Nitrobacter spp.; 0.10 ppm, week 0): 9 ppm
Concentration of nitrite nitrogen (Nitrobacter spp.; 0.10 ppm, week 1): -4 ppm
Concentration of nitrite nitrogen (Nitrobacter spp.; 0.10 ppm, week 2): 4 ppm
Concentration of nitrite nitrogen (Nitrobacter spp.; 0.10 ppm, week 4): 11 ppm
Concentration of nitrite nitrogen (Nitrobacter spp.; 0.10 ppm, week 7): 7 ppm
Concentration of nitrite nitrogen (Nitrobacter spp.; 0.10 ppm, week 9): 16 ppm
Concentration of nitrite nitrogen (Nitrobacter spp.; 0.10 ppm, week 12): 18 ppm
Concentration of nitrite nitrogen (Nitrobacter spp.; 0.10 ppm, week 16): 7 ppm
Concentration of nitrite nitrogen (Nitrobacter spp.; 0.10 ppm, week 20): 11 ppm
Concentration of nitrite nitrogen (Nitrobacter spp.; 0.25 ppm, week 0): 6 ppm
Concentration of nitrite nitrogen (Nitrobacter spp.; 0.25 ppm, week 1): 3 ppm
Concentration of nitrite nitrogen (Nitrobacter spp.; 0.25 ppm, week 2): 6 ppm
Concentration of nitrite nitrogen (Nitrobacter spp.; 0.25 ppm, week 4): 7 ppm
Concentration of nitrite nitrogen (Nitrobacter spp.; 0.25 ppm, week 7): -4 ppm
Concentration of nitrite nitrogen (Nitrobacter spp.; 0.25 ppm, week 9): 17 ppm
Concentration of nitrite nitrogen (Nitrobacter spp.; 0.25 ppm, week 12): 30 ppm
Concentration of nitrite nitrogen (Nitrobacter spp.; 0.25 ppm, week 16): 3 ppm
Concentration of nitrite nitrogen (Nitrobacter spp.; 0.25 ppm, week 20): 90 ppm
Concentration of nitrite nitrogen (Nitrobacter spp.; 0.50 ppm, week 0): 6 ppm
Concentration of nitrite nitrogen (Nitrobacter spp.; 0.50 ppm, week 1): 5 ppm
Concentration of nitrite nitrogen (Nitrobacter spp.; 0.50 ppm, week 2): 6 ppm
Concentration of nitrite nitrogen (Nitrobacter spp.; 0.50 ppm, week 4): 0 ppm
Concentration of nitrite nitrogen (Nitrobacter spp.; 0.50 ppm, week 7): 2 ppm
Concentration of nitrite nitrogen (Nitrobacter spp.; 0.50 ppm, week 9): -7 ppm
Concentration of nitrite nitrogen (Nitrobacter spp.; 0.50 ppm, week 12): 4 ppm
Concentration of nitrite nitrogen (Nitrobacter spp.; 0.50 ppm, week 16): 2 ppm
Concentration of nitrite nitrogen (Nitrobacter spp.; 0.50 ppm, week 20): 22 ppm

CC[C@@H](C(=O)[C@@H](C)[C@@H](O)[C@H](C)[C@@H]1O[C@@H]([C@@H](CC)C(=O)O)CC[C@@H]1C)[C@H]1O[C@]2(C=C[C@@H](O)[C@]3(CC[C@@](C)([C@H]4CC[C@](O)(CC)[C@H](C)O4)O3)O2)[C@H](C)C[C@@H]1C [Salinomycin monosodium salt, Salinomycin]
Concentration of nitrate nitrogen (Nitrosomonas spp.; 0.10 ppm, week 0): 18 PPM
Recovery of Ammonium Nitrogen (Nitrosomonas spp.; 0.10 ppm, week 0): 194 PPM
Concentration of nitrate nitrogen (Nitrosomonas spp.; 0.10 ppm, week 1): 20 PPM
Recovery of Ammonium Nitrogen (Nitrosomonas spp.; 0.10 ppm, week 1): 171 PPM
Concentration of nitrate nitrogen (Nitrosomonas spp.; 0.10 ppm, week 2): 20 PPM
Recovery of Ammonium Nitrogen (Nitrosomonas spp.; 0.10 ppm, week 2): 183 PPM
Concentration of nitrate nitrogen (Nitrosomonas spp.; 0.10 ppm, week 4): 26 PPM
Recovery of Ammonium Nitrogen (Nitrosomonas spp.; 0.10 ppm, week 4): 184 PPM
Concentration of nitrate nitrogen (Nitrosomonas spp.; 0.10 ppm, week 7): 27 PPM
Recovery of Ammonium Nitrogen (Nitrosomonas spp.; 0.10 ppm, week 7): 136 PPM
Concentration of nitrate nitrogen (Nitrosomonas spp.; 0.10 ppm, week 9): 201 PPM
Recovery of Ammonium Nitrogen (Nitrosomonas spp.; 0.10 ppm, week 9): 3 PPM
Concentration of nitrate nitrogen (Nitrosomonas spp.; 0.10 ppm, week 12): 219 PPM
Recovery of Ammonium Nitrogen (Nitrosomonas spp.; 0.10 ppm, week 12): 10 PPM
Concentration of nitrate nitrogen (Nitrosomonas spp.; 0.10 ppm, week 16): 233 PPM
Recovery of Ammonium Nitrogen (Nitrosomonas spp.; 0.10 ppm, week 16): 5 PPM
Recovery of Ammonium Nitrogen (Nitrosomonas spp.; 0.10 ppm, week 20): 0 PPM
Specific inhibition of nitrification through activity against Nitrosomonas spp., in words (Nitrosomonas spp.): appear to specifically inhibit nitrification through activity against Nitrosomonas spp.
Concentration of nitrate nitrogen (Nitrosomonas spp.; 0.25 ppm, week 0): 19 PPM
Recovery of Ammonium Nitrogen (Nitrosomonas spp.; 0.25 ppm, week 0): 193 PPM
Concentration of nitrate nitrogen (Nitrosomonas spp.; 0.25 ppm, week 1): 23 PPM
Recovery of Ammonium Nitrogen (Nitrosomonas spp.; 0.25 ppm, week 1): 176 PPM
Concentration of nitrate nitrogen (Nitrosomonas spp.; 0.25 ppm, week 2): 22 PPM
Recovery of Ammonium Nitrogen (Nitrosomonas spp.; 0.25 ppm, week 2): 189 PPM
Concentration of nitrate nitrogen (Nitrosomonas spp.; 0.25 ppm, week 4): 23 PPM
Recovery of Ammonium Nitrogen (Nitrosomonas spp.; 0.25 ppm, week 4): 185 PPM
Concentration of nitrate nitrogen (Nitrosomonas spp.; 0.25 ppm, week 7): 45 PPM
Recovery of Ammonium Nitrogen (Nitrosomonas spp.; 0.25 ppm, week 7): 167 PPM
Concentration of nitrate nitrogen (Nitrosomonas spp.; 0.25 ppm, week 9): 44 PPM
Recovery of Ammonium Nitrogen (Nitrosomonas spp.; 0.25 ppm, week 9): 171 PPM
Concentration of nitrate nitrogen (Nitrosomonas spp.; 0.25 ppm, week 12): 57 PPM
Recovery of Ammonium Nitrogen (Nitrosomonas spp.; 0.25 ppm, week 12): 168 PPM
Concentration of nitrate nitrogen (Nitrosomonas spp.; 0.25 ppm, week 16): 121 PPM
Recovery of Ammonium Nitrogen (Nitrosomonas spp.; 0.25 ppm, week 16): 111 PPM
Concentration of nitrate nitrogen (Nitrosomonas spp.; 0.25 ppm, week 20): 187 PPM
Recovery of Ammonium Nitrogen (Nitrosomonas spp.; 0.25 ppm, week 20): 4 PPM
Concentration of nitrate nitrogen (Nitrosomonas spp.; 0.50 ppm, week 0): 19 PPM
Recovery of Ammonium Nitrogen (Nitrosomonas spp.; 0.50 ppm, week 0): 194 PPM
Concentration of nitrate nitrogen (Nitrosomonas spp.; 0.50 ppm, week 1): 22 PPM
Recovery of Ammonium Nitrogen (Nitrosomonas spp.; 0.50 ppm, week 1): 167 PPM
Concentration of nitrate nitrogen (Nitrosomonas spp.; 0.50 ppm, week 2): 21 PPM
Recovery of Ammonium Nitrogen (Nitrosomonas spp.; 0.50 ppm, week 2): 185 PPM
Concentration of nitrate nitrogen (Nitrosomonas spp.; 0.50 ppm, week 4): 18 PPM
Recovery of Ammonium Nitrogen (Nitrosomonas spp.; 0.50 ppm, week 4): 170 PPM
Concentration of nitrate nitrogen (Nitrosomonas spp.; 0.50 ppm, week 7): 18 PPM
Recovery of Ammonium Nitrogen (Nitrosomonas spp.; 0.50 ppm, week 7): 197 PPM
Concentration of nitrate nitrogen (Nitrosomonas spp.; 0.50 ppm, week 9): 26 PPM
Recovery of Ammonium Nitrogen (Nitrosomonas spp.; 0.50 ppm, week 9): 196 PPM
Concentration of nitrate nitrogen (Nitrosomonas spp.; 0.50 ppm, week 12): 39 PPM
Recovery of Ammonium Nitrogen (Nitrosomonas spp.; 0.50 ppm, week 12): 191 PPM
Concentration of nitrate nitrogen (Nitrosomonas spp.; 0.50 ppm, week 16): 28 PPM
Recovery of Ammonium Nitrogen (Nitrosomonas spp.; 0.50 ppm, week 16): 205 PPM
Concentration of nitrate nitrogen (Nitrosomonas spp.; 0.50 ppm, week 20): 45 PPM
Recovery of Ammonium Nitrogen (Nitrosomonas spp.; 0.50 ppm, week 20): 176 PPM
Effectiveness as nitrification inhibitor, in words (Nitrosomonas spp.; 20 weeks study): second most effective inhibitor
Concentration of nitrite nitrogen (Nitrobacter spp.; 0.10 ppm, week 0): 7 ppm
Concentration of nitrite nitrogen (Nitrobacter spp.; 0.10 ppm, week 1): 5 ppm
Concentration of nitrite nitrogen (Nitrobacter spp.; 0.10 ppm, week 2): 7 ppm
Concentration of nitrite nitrogen (Nitrobacter spp.; 0.10 ppm, week 4): 6 ppm
Concentration of nitrite nitrogen (Nitrobacter spp.; 0.10 ppm, week 7): -4 ppm
Concentration of nitrite nitrogen (Nitrobacter spp.; 0.10 ppm, week 9): 25 ppm
Concentration of nitrite nitrogen (Nitrobacter spp.; 0.10 ppm, week 12): 7 ppm
Concentration of nitrite nitrogen (Nitrobacter spp.; 0.10 ppm, week 16): 7 ppm
Concentration of nitrite nitrogen (Nitrobacter spp.; 0.10 ppm, week 20): 11 ppm
Concentration of nitrite nitrogen (Nitrobacter spp.; 0.25 ppm, week 0): 8 ppm
Concentration of nitrite nitrogen (Nitrobacter spp.; 0.25 ppm, week 1): 5 ppm
Concentration of nitrite nitrogen (Nitrobacter spp.; 0.25 ppm, week 2): 3 ppm
Concentration of nitrite nitrogen (Nitrobacter spp.; 0.25 ppm, week 4): 7 ppm
Concentration of nitrite nitrogen (Nitrobacter spp.; 0.25 ppm, week 7): -1 ppm
Concentration of nitrite nitrogen (Nitrobacter spp.; 0.25 ppm, week 9): 7 ppm
Concentration of nitrite nitrogen (Nitrobacter spp.; 0.25 ppm, week 12): 9 ppm
Concentration of nitrite nitrogen (Nitrobacter spp.; 0.25 ppm, week 16): 2 ppm
Concentration of nitrite nitrogen (Nitrobacter spp.; 0.25 ppm, week 20): 47 ppm
Concentration of nitrite nitrogen (Nitrobacter spp.; 0.50 ppm, week 0): 9 ppm
Concentration of nitrite nitrogen (Nitrobacter spp.; 0.50 ppm, week 1): 3 ppm
Concentration of nitrite nitrogen (Nitrobacter spp.; 0.50 ppm, week 2): 3 ppm
Concentration of nitrite nitrogen (Nitrobacter spp.; 0.50 ppm, week 4): 14 ppm
Concentration of nitrite nitrogen (Nitrobacter spp.; 0.50 ppm, week 7): 4 ppm
Concentration of nitrite nitrogen (Nitrobacter spp.; 0.50 ppm, week 9): -1 ppm
Concentration of nitrite nitrogen (Nitrobacter spp.; 0.50 ppm, week 12): 1 ppm
Concentration of nitrite nitrogen (Nitrobacter spp.; 0.50 ppm, week 16): 8 ppm
Concentration of nitrite nitrogen (Nitrobacter spp.; 0.50 ppm, week 20): 14 ppm
